Here are results for 54 compounds from patent US20250122192A1, “5-PYRIMIDINECARBOXAMIDE DERIVATIVES AND METHODS OF USING THE SAME” (Rgenta Therapeutics, Inc., priority 2021, published 2025).

Structures can show the parent of a compound that is named as a salt.

One assay has as its system PMS1. Put plainly: Mini-gene reporter assay-PMS1. The conditions noted are these: Homo sapiens, HEK293, PMS1 mini-gene firefly luciferase reporter transiently transfected into HEK293 cells; read-out: PMS1 IC50. The assay is classed as cell-based. The text has this:
Biological Activity of the Compounds of the Present Disclosure Mini-gene reporter assay-PMS1
Mini-gene reporter constructs for each target site can be constructed by first PCR amplifying the region-of-interest including the sequence of the alternatively skipped, sequences of the immediate upstream and downstream introns, and sequences of the immediate upstream and downstream exons. Then the 3′end of the amplified sequence can be ligated to a firefly luciferase reporter gene and cloned into the pcDNA3.1 vector backbone. The final reporter construct can be transiently transfected into HEK293 cells using Lipofectamine 3000 transfection reagents. Compounds that can induce the inclusion of the skipped exon in the reporter construct would increase the reporter firefly luciferase activity.
Test compounds may be diluted in duplicates and dispensed into an assay plate. Transient mini-gene reporter cell line stock is resuspended and dispensed into the assay plate. Assay plates are then centrifuged and incubated. A luciferase reagent (e.g. ONE-Glo firefly luciferase reagent from Promega®) may be added to the assay plate and the luminescence (RLU) signals recorded. PMS1 EC50 values may be determined by curve fitting in Levenberg-Marquardt algorithm.
For orientation: A reporter such as luciferase makes a cellular process visible.
`CCOc1nc(N2CCCC(C3CCCCN3)C2)ncc1C(=O)Nc1cn2cc(C)nc2c(C)n1` (stereo not drawn) [Compound 34]: the concentration for half-maximal inhibition (IC50) is > 3 µM. As to `CCOc1nc(N2CCNC(C)CC2)ncc1C(=O)Nc1cc(F)c2nc(C)cn2c1` (stereo not drawn) [Compound 191], the IC50 was < 0.5 µM. The same measure, in the same setting: the result for `CCOc1nc(N2CCC(C3CCCN3)CC2)ncc1C(=O)Nc1cn2cc(C)nc2c(C)n1` (stereo not drawn) [Compound 73] reads 0.5 to 1 µM; that for `CCOc1nc(N2CCN[C@@H](C)C2)ncc1C(=O)Nc1cc(F)c2nc(C)cn2c1` [Compound 7, 4-ethoxy-N-{8-fluoro-2-methylimidazo[1,2-a]pyridin-6-yl}-2-[(3S)-3-methylpiperazin-1-yl]pyrimidine-5-carboxamide], 0.5 to 1 µM; that for `CCOc1nc(N2CCC3(CCNC3)C2)ncc1C(=O)Nc1cn2cc(C)nc2c(C)n1` (stereo not drawn) [Compound 80], < 0.5 µM. As to `CCOc1nc(N2CC[C@@H]3CNC[C@@H]3C2)ncc1C(=O)Nc1cn2cc(C)nc2c(C)n1` (racemic) [Compound 29], the IC50 was > 3 µM. Still for that read-out and setting: the result for `COCc1nc(N(C)CC2CNCCO2)ncc1C(=O)Nc1cc(F)c2nc(C)cn2c1` (stereo not drawn) [Compound 189] reads > 3 µM; that for `CCOc1nc(N2CCC3(CC2)CNCCO3)ncc1C(=O)Nc1cc(F)c2nc(C)cn2c1` [Compound 204], 0.5 to 1 µM; that for `CCOc1nc(N2CCC(C3CNC3)CC2)ncc1C(=O)Nc1cc(F)c2nc(C)cn2c1` [Compound 142], 1 to 3 µM.

As to `CCOc1nc(N2CCNCC2)ncc1C(=O)Nc1cn2cc(C)nc2c(C)n1` [Compound 16, N-{2,8-dimethylimidazo[1,2-a]pyrazin-6-yl}-4-ethoxy-2-(piperazin-1-yl)pyrimidine-5-carboxamide], the 50% inhibitory concentration (IC50) is > 3 µM. Turning to `CCOc1nc(N2CCN(C)CC2)ncc1C(=O)Nc1cc(F)c2nn(C)cc2c1` [Compound 259, 4-ethoxy-N-(7-fluoro-2-methyl-2H-indazol-5-yl)-2-(4-methylpiperazin-1-yl)pyrimidine-5-carboxamide formate], the IC50 is 1 to 3 µM. Turning to `CCOc1nc(N2C[C@@H]3CNC[C@]3(C)C2)ncc1C(=O)Nc1cn2cc(C)nc2c(C)n1` (racemic) [Compound 98], the IC50 is < 0.5 µM. Take `CCOc1nc(N2C[C@H]3CNC[C@H]3C2)ncc1C(=O)Nc1cn2cc(C)nc2c(C)n1` [Compound 84]: the concentration for half-maximal inhibition (IC50) is < 0.5 µM. The same measure, in the same setting: the result for `CCOc1nc(N2CCC3(CCCCN3)C2)ncc1C(=O)Nc1cn2cc(C)nc2c(C)n1` (stereo not drawn) [Compound 96] reads 1 to 3 µM; that for `CCOc1nc(N(C)[C@H]2CCCNC2)ncc1C(=O)Nc1cc(F)c2nc(C)cn2c1` [Compound 163], < 0.5 µM. The same measure, in the same setting: the same measure for `CCOc1nc(NC2CCNCC2)ncc1C(=O)Nc1cn2cc(C)nc2c(C)n1` [Compound 251, N-(2,8-dimethylimidazo[1,2-a]pyrazin-6-yl)-4-ethoxy-2-(piperidin-4-ylamino) pyrimidine-5-carboxamide formate]: 1 to 3 µM. On the same count and under the same terms, the same measure for `CCOc1nc(N(C)C2CCCNCC2)ncc1C(=O)Nc1cc(F)c2nc(C)cn2c1` (stereo not drawn) [Compound 173]: < 0.5 µM; for `CCOc1nc(N2CCC(C3CCCN3)CC2)ncc1C(=O)Nc1cc(F)c2nc(C)cn2c1` (stereo not drawn) [Compound 203]: < 0.5 µM. For `CCOc1nc(N2CC[C@H](NC)C2)ncc1C(=O)Nc1ccc2nc(C)cn2n1` [Compound 318], the IC50 was > 3 µM.

Turning to `CCOc1nc(N2CC[C@@H]3NCC[C@@H]3C2)ncc1C(=O)Nc1cc(F)c2nc(C)cn2c1` (racemic) [Compound 199], the IC50 was < 0.5 µM. The same measure, in the same setting: the result for `CCOc1nc(N(C)C2CC3CCC(C2)N3)ncc1C(=O)Nc1cc(F)c2nc(C)cn2c1` (stereo not drawn) [Compound 190] reads < 0.5 µM. Same read-out and setting: the result for `CCOc1nc(N2CCNCC3(CC3)C2)ncc1C(=O)Nc1cn2cc(C)nc2c(C)n1` [Compound 92] reads 1 to 3 µM; that for `CCOc1nc(N2CC[C@@H](NC)C2)ncc1C(=O)Nc1cc(F)c2nc(C)cn2c1` [Compound 262, (R)-4-ethoxy-N-(8-fluoro-2-methylimidazo[1,2-a]pyridin-6-yl)-2-(3-(methylamino)pyrrolidin-1-yl)pyrimidine-5-carboxamide formate], < 0.5 µM; that for `CCOc1nc(N2CCC[C@H]3CNC[C@H]32)ncc1C(=O)Nc1cc(F)c2nc(C)cn2c1` [Compound 193], 0.5 to 1 µM. Take `CCOc1nc(N2CC3CNCCC32)ncc1C(=O)Nc1cc(F)c2nc(C)cn2c1` (stereo not drawn) [Compound 136]: the IC50 was < 0.5 µM. Same read-out and setting: the same measure for `CCOc1nc(N2CC3CNC(C3)C2)ncc1C(=O)Nc1cc(F)c2nc(C)cn2c1` (stereo not drawn) [Compound 134]: 1 to 3 µM; for `CCOc1nc(N2CCC(C3(O)CNC3)CC2)ncc1C(=O)Nc1cc(F)c2nc(C)cn2c1` [Compound 129]: > 3 µM.

As for `CCOc1nc(N2CCC3(CNC3)C2)ncc1C(=O)Nc1cn2cc(C)nc2c(C)n1` [Compound 78], the concentration for half-maximal inhibition (IC50) is < 0.5 µM. Take `CCOc1nc(N2CC3CNCC3C2)ncc1C(=O)Nc1cn2cc(C)nc2c(C)n1` (stereo not drawn) [Compound 20, N-{2,8-dimethylimidazo[1,2-a]pyrazin-6-yl}-4-ethoxy-2-{octahydropyrrolo[3,4-c]pyrrol-2-yl}pyrimidine-5-carboxamide]: the IC50 was < 0.5 µM. With `CCOc1nc(N2CCN(C3CCNC3)CC2)ncc1C(=O)Nc1cc(F)c2nc(C)cn2c1` (stereo not drawn) [Compound 224], the IC50 was 1 to 3 µM. In the case of `CCOc1nc(N2CCC(CNC)CC2)ncc1C(=O)Nc1cc(F)c2nc(C)cn2c1` [Compound 216], the half-maximal inhibitory concentration (IC50) was < 0.5 µM.

For the compound `CCOc1nc(N2CC3(CCNC3)C2)ncc1C(=O)Nc1cn2cc(C)nc2c(C)n1` [Compound 51], the IC50 was < 0.5 µM.

On to `CCOc1nc(N(C)C2CCNCC2C)ncc1C(=O)Nc1cc(F)c2nc(C)cn2c1` (stereo not drawn) [Compound 160], for which the concentration for half-maximal inhibition (IC50) was < 0.5 µM. The same measure, in the same setting: the same measure for `CCOc1nc(N(C)CC2CCNCC2)ncc1C(=O)Nc1cc(F)c2nc(C)cn2c1` [Compound 237]: > 3 µM; for `CCOc1nc(N2CCCC(C3CCNCC3)C2)ncc1C(=O)Nc1cc(F)c2nc(C)cn2c1` (stereo not drawn) [Compound 146]: < 0.5 µM. Consider `CCOc1nc(N2CCNCC(O)C2)ncc1C(=O)Nc1cc(F)c2nc(C)cn2c1` (stereo not drawn) [Compound 171], for which the IC50 is 1 to 3 µM. Same read-out and setting: the result for `CCOc1nc(N2CC[C@H](NC)C2)ncc1C(=O)Nc1ccc2nc(C)cn2c1` [Compound 293, (S)-4-ethoxy-2-(3-(methylamino)pyrrolidin-1-yl)-N-(2-methylimidazo[1,2-a]pyridin-6-yl)pyrimidine-5-carboxamide formate] reads > 3 µM.

As to `CCOc1nc(N2CC[C@H](NC)C2)ncc1C(=O)Nc1cc(F)c2nc(C)cn2c1` (single isomer, unassigned) [Compound 312, hydrochloride], the IC50 was < 0.5 µM. For `CCOc1nc(N2CCC(NC)C2)ncc1C(=O)Nc1cc(F)c2nn(C)cc2c1` (stereo not drawn) [Compound 263, 4-ethoxy-N-(7-fluoro-2-methyl-2H-indazol-5-yl)-2-(3-(methylamino)pyrrolidin-1-yl)pyrimidine-5-carboxamide formate], the 50% inhibitory concentration (IC50) is < 0.5 µM. Still for that read-out and setting: the same measure for `CCOc1nc(N2CC3(CC(NC)CO3)C2)ncc1C(=O)Nc1cc(F)c2nc(C)cn2c1` (stereo not drawn) [Compound 246]: < 0.5 µM; for `CCOc1nc(N(C)[C@@H]2C[C@H]3CC[C@@H](C2)N3)ncc1C(=O)Nc1cc(F)c2nc(C)cn2c1` [Compound 186]: < 0.5 µM. Turning to `CCOc1nc(N2CC3(CC(NC)CO3)C2)ncc1C(=O)Nc1cn2cc(C)nc2c(C)n1` (stereo not drawn) [Compound 33], the IC50 was > 3 µM. Same read-out and setting: the result for `CCOc1nc(N2CCNCC(C)(C)C2)ncc1C(=O)Nc1cc(F)c2nc(C)cn2c1` [Compound 118] reads 1 to 3 µM; that for `CCOc1nc(N(C)C2CCCNC2)ncc1C(=O)Nc1cc(F)c2nc(C)cn2c1` (stereo not drawn) [Compound 244], < 0.5 µM; that for `CCOc1nc(N2CCC3CCNCC3C2)ncc1C(=O)Nc1cc(F)c2nc(C)cn2c1` (stereo not drawn) [Compound 135], 0.5 to 1 µM.

For the compound `CCOc1nc(N2CC3CNCC3C2)ncc1C(=O)Nc1cc(F)c2nc(C)oc2c1` (stereo not drawn) [Compound 14, 4-ethoxy-N-(4-fluoro-2-methyl-1,3-benzoxazol-6-yl)-2-{octahydropyrrolo[3,4-c]pyrrol-2-yl}pyrimidine-5-carboxamide], the IC50 was < 0.5 µM. Consider `CCNC1CCCN(c2ncc(C(=O)Nc3cc(F)c4nc(C)cn4c3)c(OCC)n2)C1` (stereo not drawn) [Compound 176], for which the IC50 was in the range of 0.5 to 1 µM. Still for that read-out and setting: the same measure for `CCOc1nc(N2CCCC3(CCNC3)C2)ncc1C(=O)Nc1cc(F)c2nc(C)cn2c1` (stereo not drawn) [Compound 183]: > 3 µM. Take `CCOc1nc(N2CCNCCC2C)ncc1C(=O)Nc1cc(F)c2nc(C)cn2c1` (stereo not drawn) [Compound 205]: the IC50 is 0.5 to 1 µM. Still for that read-out and setting: the result for `CCOc1nc(N2C[C@@H]3CNC[C@]3(C)C2)ncc1C(=O)Nc1cc(F)c2nc(C)cn2c1` (racemic) [Compound 179] reads < 0.5 µM; that for `CCOc1nc(N2CC3CCC2CN3)ncc1C(=O)Nc1cn2cc(C)nc2c(C)n1` (stereo not drawn) [Compound 53], 0.5 to 1 µM.

Still in this assay, the particulars now being: Homo sapiens; at 5 μM; PMS1 mini-gene firefly luciferase reporter in HEK293 cells; read-out: PMS1% Effect at 5 μM.
With `CCOc1nc(N2CC(CO)C3(CNC3)C2)ncc1C(=O)Nc1cn2cc(C)nc2c(C)n1` (stereo not drawn) [Compound 50], the activation at 5 µM is < 50%. Still for that read-out and setting: the same measure for `CCOc1nc(N2CC[C@@H]3NCC(=O)N[C@@H]3C2)ncc1C(=O)Nc1cc(F)c2nc(C)cn2c1` (racemic) [Compound 170]: < 50%; for `CCOc1nc(N2CC(C)OC3(CCNCC3)C2)ncc1C(=O)Nc1cc(F)c2nc(C)cn2c1` (stereo not drawn) [Compound 162]: < 50%.

Usually IC50 stands for the concentration at which inhibition is half-maximal.
